Laboratory results from patent US20220395549A1, “COMPOSITIONS OF THE OLEA EUROPAEA V. SYLVESTRIS WITH ANTIMICROBIAL EFFICACY” (TAPROGGE GMBH, priority 2019, published 2022).

How the values were obtained:
S. aureus ATCC 6538 = assay: quantitative suspension assay of mono-substances; type: cell-based, Staphylococcus aureus; settings: for Number of CFUs: initial cell load 9.5 × 10^4 CFU/ml
In short: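 Hydroxytyrosol, uvaol and erythrodiol were tested at 2 mg/ml stock plus dilutions to 0.125 mg/ml (solvent methanol or chloroform, in water). Oleocanthal was tested at 1–0.125 mg/ml and oleacin at 0.25 and 0.125 mg/ml in ethanol/water. Inocula were ~100,000 CFU/ml at 20–25° C, sampled from 0 min to 72 h and plated on blood agar.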

[1] = solubility as encountered during the assays; type: physicochemical
Description: The reduction at the later points in time is due to the natural loss of viability of the bacteria.

In the case of `CC1(C)CC[C@]2(CO)CC[C@]3(C)C(=CC[C@@H]4[C@@]5(C)CC[C@H](O)C(C)(C)[C@@H]5CC[C@]43C)[C@@H]2C1` [erythrodiol], the “Number of CFUs” value (S. aureus ATCC 6538; 0.125 Ery/ml, t 0 min) is reported as >10^4 CFU/ml, the “Number of CFUs” value (S. aureus ATCC 6538; 0.125 Ery/ml, t 12 min) is reported as >10^4 CFU/ml and the “Number of CFUs” value (S. aureus ATCC 6538; 0.125 Ery/ml, t 30 min) is reported as >10^4 CFU/ml. The “Number of CFUs” value (S. aureus ATCC 6538; 0.125 Ery/ml, t 60 min) was >10^4 CFU/ml, the “Number of CFUs” value (S. aureus ATCC 6538; 0.125 Ery/ml, t 24 h) was >10^4 CFU/ml and the “Number of CFUs” value (S. aureus ATCC 6538; 0.125 Ery/ml, t 48 h) was >10^4 CFU/ml. For the same compound, the “Number of CFUs” value (S. aureus ATCC 6538; 0.125 Ery/ml, t 72 h) was >10^4 CFU/ml, the “Number of CFUs” value (S. aureus ATCC 6538; 0.25 Ery/ml, t 0 min) was 2.8 × 10^4 CFU/ml and the “Number of CFUs” value (S. aureus ATCC 6538; 0.25 Ery/ml, t 12 min) was 2.9 × 10^4 CFU/ml. For the same compound, the “Number of CFUs” value (S. aureus ATCC 6538; 0.25 Ery/ml, t 30 min) was 2.0 × 10^4 CFU/ml, the “Number of CFUs” value (S. aureus ATCC 6538; 0.25 Ery/ml, t 60 min) was 1.7 × 10^4 CFU/ml and the “Number of CFUs” value (S. aureus ATCC 6538; 0.25 Ery/ml, t 24 h) was >10^4 CFU/ml. For the same compound, the “Number of CFUs” value (S. aureus ATCC 6538; 0.25 Ery/ml, t 48 h) was >10^4 CFU/ml, the “Number of CFUs” value (S. aureus ATCC 6538; 0.25 Ery/ml, t 72 h) was >10^4 CFU/ml and the “Number of CFUs” value (S. aureus ATCC 6538; 0.5 Ery/ml, t 0 min) was 1.9 × 10^4 CFU/ml. The “Number of CFUs” value (S. aureus ATCC 6538; 0.5 Ery/ml, t 12 min) was 2.0 × 10^4 CFU/ml, the “Number of CFUs” value (S. aureus ATCC 6538; 0.5 Ery/ml, t 30 min) was 1.8 × 10^4 CFU/ml and the “Number of CFUs” value (S. aureus ATCC 6538; 0.5 Ery/ml, t 60 min) was 1.0 × 10^4 CFU/ml. For the same compound, the “Number of CFUs” value (S. aureus ATCC 6538; 0.5 Ery/ml, t 24 h) was >10^4 CFU/ml, the “Number of CFUs” value (S. aureus ATCC 6538; 0.5 Ery/ml, t 48 h) was >10^4 CFU/ml and the “Number of CFUs” value (S. aureus ATCC 6538; 0.5 Ery/ml, t 72 h) was >10^4 CFU/ml. For the same compound, the “Number of CFUs” value (S. aureus ATCC 6538; 1.0 Ery/ml, t 0 min) was under 100 CFU/ml, the “Number of CFUs” value (S. aureus ATCC 6538; 1.0 Ery/ml, t 12 min) was under 100 CFU/ml and the “Number of CFUs” value (S. aureus ATCC 6538; 1.0 Ery/ml, t 30 min) was under 100 CFU/ml. For the same compound, the “Number of CFUs” value (S. aureus ATCC 6538; 1.0 Ery/ml, t 60 min) was under 100 CFU/ml, the “Number of CFUs” value (S. aureus ATCC 6538; 1.0 Ery/ml, t 24 h) was 1.7 × 10^4 CFU/ml and the “Number of CFUs” value (S. aureus ATCC 6538; 1.0 Ery/ml, t 48 h) was 1.0 × 10^4 CFU/ml. For the same compound, the “Number of CFUs” value (S. aureus ATCC 6538; 1.0 Ery/ml, t 72 h) was 8.8 × 10^3 CFU/ml, the “Number of CFUs” value (S. aureus ATCC 6538; 2.0 Ery/ml, t 0 min) was under 100 CFU/ml and the “Number of CFUs” value (S. aureus ATCC 6538; 2.0 Ery/ml, t 12 min) was under 100 CFU/ml. The “Number of CFUs” value (S. aureus ATCC 6538; 2.0 Ery/ml, t 30 min) was under 100 CFU/ml, the “Number of CFUs” value (S. aureus ATCC 6538; 2.0 Ery/ml, t 60 min) was under 100 CFU/ml and the “Number of CFUs” value (S. aureus ATCC 6538; 2.0 Ery/ml, t 24 h) was 8.2 × 10^3 CFU/ml. For the same compound, the “Number of CFUs” value (S. aureus ATCC 6538; 2.0 Ery/ml, t 48 h) was under 100 CFU/ml, the “Number of CFUs” value (S. aureus ATCC 6538; 2.0 Ery/ml, t 72 h) was under 100 CFU/ml and the “antimicrobial effect, summary in words” value (S. aureus ATCC 6538; detection limit of the assay 100 CFU/ml) was “strong effect after incubation at concentrations of 2.0 Ery/ml”. For the same compound, the solubility [1] was “poor solubility”.
